Holding throughout (assay type): biochemical
In assay [1] the target is T1, αPMM/PGM from P. aeruginosa (Pseudomonas aeruginosa, UniProt P26276).
T1 sequence (P26276 1-463): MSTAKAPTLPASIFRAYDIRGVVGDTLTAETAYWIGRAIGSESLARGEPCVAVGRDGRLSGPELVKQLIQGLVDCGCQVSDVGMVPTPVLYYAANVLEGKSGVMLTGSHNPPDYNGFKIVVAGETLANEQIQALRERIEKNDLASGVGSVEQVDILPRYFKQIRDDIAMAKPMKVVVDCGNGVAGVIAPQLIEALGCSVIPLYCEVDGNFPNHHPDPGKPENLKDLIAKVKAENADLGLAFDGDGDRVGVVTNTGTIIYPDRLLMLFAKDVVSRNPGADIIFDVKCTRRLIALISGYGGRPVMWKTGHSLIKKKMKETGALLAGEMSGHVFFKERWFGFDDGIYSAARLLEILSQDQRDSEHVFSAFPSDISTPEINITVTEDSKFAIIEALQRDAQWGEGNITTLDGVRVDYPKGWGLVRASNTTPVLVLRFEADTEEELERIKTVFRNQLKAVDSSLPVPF
As to the kind of experiment: IC50 determination of αPMM/PGM.

For the next assay, the target named is βPGM from L. lactis (Lactococcus lactis subsp. lactis, UniProt P71447). The experiment in a line: IC50 determination of βPGM.
Another assay deals with T2, αPMM/PGM (Pseudomonas aeruginosa, UniProt P26276).
T2 sequence (P26276 1-463): T1 sequence (P26276 1-463)
The experiment in a line: Michaelis Menten kinetics of αPMM/PGM. To be noted: read-out: Km(αG1P), variable αG1P 0–200 µM.

SMILES strings stand for the structures.

The term IC50 denotes the concentration needed to halve the response being measured. Low values mean inhibition by little substance, high ones a need for much substance. Usually Ki stands for the equilibrium dissociation constant of an inhibitor or competing ligand from its target. A lower Ki goes with a stronger hold on the target. In the case of `C[C@]1(O)O[C@H](COP(=O)(O)O)[C@@H](O)[C@H](O)[C@H]1O` [compound 1, 1-Deoxy-α-D-gluco-heptulose 7-Phosphate], the IC50 is 131 ± 1 µM in assay [1] and 113 ± 3 µM against βPGM from L. lactis. In addition, the Ki was 65 ± 0.5 µM in assay [1] and 57 ± 2 µM on βPGM from L. lactis.

In assay [1], `O=P(O)(O)OC[C@H]1O[C@@](O)(CF)[C@H](O)[C@@H](O)[C@@H]1O` [compound 2, 1-Deoxy-1-monofluoro-α-D-gluco-heptulose 7-Phosphate] yielded an IC50 of 234 ± 29 µM and a Ki of 117 ± 14 µM. In addition, at βPGM from L. lactis, the IC50 worked out at 183 ± 14 µM and the Ki came out at 92 ± 7 µM.

In assay [1], `O=P(O)(O)OC[C@H]1O[C@@](O)(C(F)F)[C@H](O)[C@@H](O)[C@@H]1O` [compound 3, 1-Deoxy-1,1-difluoro-α-D-gluco-heptulose 7-Phosphate] had an IC50 of 288 ± 37 µM and a Ki of 144 ± 18 µM. At βPGM from L. lactis, the half-maximal inhibitory concentration (IC50) came out at 214 ± 11 µM and the affinity corresponds to a Ki of 107 ± 6 µM.

What is called Km is the concentration of substrate that gives half-maximal velocity. For the compound `O=P(O)(O)O[C@H]1O[C@H](CO)[C@@H](O)[C@H](O)[C@H]1O` [αG1P, glucose 1-phosphate], the Km at αPMM/PGM came to 20 µM.

For the origin of these results see publication PMC6547622 (ACS Omega, 2019).
